We go through one compound from patent publication US20190062428A1, “COMBINATION OF ANTI-CD47 ANTIBODIES AND CELL DEATH-INDUCING AGENTS, AND USES THEREOF” (Surface Oncology, Inc., priority 2017, published 2019).

The assay relates to Ri-1 tumors. The assay is described as follows: Ri-1 human B cell lymphoma (DLBCL) subcutaneous xenograft, tumor volume. Format: in vivo, CB.17 SCID mice. As to conditions: FIG. 4. On the procedure:
The Ri-1 cell line is a human B cell lymphoma line that represents the ABC-subtype of diffuse large cell B cell lymphoma (DLBCL) and harbors a BCL-2 amplification. ABT-199, also known as Venclexta™ or Venetoclax, is an oral BCL-2 inhibitor, and was used as the cell death-inducing agent.
Briefly, 1×10^7 Ri-1 cells were injected subcutaneously into the right flank of CB.17 SCID mice in a 1:1 mixture of RPMI and Matrigel. Tumors were allowed to grow until they were 200-300 mm^3.

In the case of `CC1(C)CCC(CN2CCN(c3ccc(C(=O)NS(=O)(=O)c4ccc(NCC5CCOCC5)c([N+](=O)[O-])c4)c(Oc4cnc5[nH]ccc5c4)c3)CC2)=C(c2ccc(Cl)cc2)C1` [ABT-199, reference compound], the single-agent anti-tumor activity entry (2.3D11 100 μg/mouse days 0, 3, 7, ABT-199 25 mg/kg days 0-4) was “potent single-agent anti-tumor activity”. Further, the tumor re-growth entry (single agents as above, combination: 2.3D11 100 μg/mouse day 0, then oral ABT-199 25 mg/kg days 3, 4, 5) is “tumors re-grew”.
